From US4471131A, “Novel silyl esters of N-phosphonomethylglycine” (Monsanto Company, priority 1983, dated 1984)

Key:
Test in all cases: post-emergence herbicidal activity, greenhouse
Format in all cases: in vivo
[1] = test system: Sugar Beet; conditions: Table III, formulated in anhydrous tetrahydrofuran
Excerpt: (§1) A good grade of top soil is placed in aluminum pans having holes in the bottom and compacted to a depth of 0.95 to 1.27 cm. from the top of the pan. A predetermined number of seeds of each of several dicotyledonous and moncotyledonous annual plant species and/or vegetative propagules for the perennial plant species were placed on the soil and pressed into the soil surface. The seeds and/or vegetative propagules are covered with soil and leveled. The pans are then placed on a sand bench in the greenhouse and watered from below as needed. After the plants reach the desired age (two to three weeks), each pan, except for the control pans, is removed individually to a spraying chamber and sprayed by means of an atomizer at the rates noted. In the spray solution is an amount of an emulsifying agent mixture to give a spray solution or suspension which contains about 0.4% by weight of the emulsifier. The spray solution or suspension contains a sufficient amount of the candidate chemical in order to give application rates corresponding to those set forth in the tables. The pans were returned to the greenhouse and watered as before and the injury to the plants as compared to the control is observed at approximately two and four weeks and the results recorded. In the tables, WAT means "weeks after treatment."
(§2) The post-emergent herbicidal activity index used in Tables II and III is as follows:
(§3) The plant species utilized in these tests are identified by letter in accordance with the following legend: […]

[2] = test system: Panicum Spp; conditions: Table III, formulated in anhydrous tetrahydrofuran
Excerpt: as §1, §2, §3

[3] = test system: Rice; conditions: Table III, formulated in anhydrous tetrahydrofuran
Excerpt: as §1, §2, §3

[4] = test system: Velvetleaf; conditions: formulated in anhydrous tetrahydrofuran
Excerpt: as §1, §2, §3

[5] = test system: Yellow Nutsedge; conditions: Table II, formulated in anhydrous tetrahydrofuran
Excerpt: as §1, §2, §3

[6] = test system: Cocklebur; conditions: formulated in anhydrous tetrahydrofuran
Excerpt: as §1, §2, §3

[7] = test system: Wild Buckwheat; conditions: Table III, formulated in anhydrous tetrahydrofuran
Excerpt: as §1, §2, §3

[8] = test system: Hemp Sesbania; conditions: Table III, formulated in anhydrous tetrahydrofuran
Excerpt: as §1, §2, §3

[9] = test system: Downy Brome; conditions: formulated in anhydrous tetrahydrofuran
Excerpt: as §1, §2, §3

[10] = test system: Large Crabgrass; conditions: Table III, formulated in anhydrous tetrahydrofuran
Excerpt: as §1, §2, §3

[11] = test system: Quackgrass; conditions: Table II, formulated in anhydrous tetrahydrofuran
Excerpt: as §1, §2, §3

[12] = test system: Barnyardgrass; conditions: formulated in anhydrous tetrahydrofuran
Excerpt: as §1, §2, §3

[13] = test system: Soybean; conditions: Table III, formulated in anhydrous tetrahydrofuran
Excerpt: as §1, §2, §3

[14] = test system: Pennsylvania Smartweed; conditions: formulated in anhydrous tetrahydrofuran
Excerpt: as §1, §2, §3

[15] = test system: Canada Thistle; conditions: Table II, formulated in anhydrous tetrahydrofuran
Excerpt: as §1, §2, §3

[16] = test system: Common Lambsquarters; conditions: formulated in anhydrous tetrahydrofuran
Excerpt: as §1, §2, §3

[17] = test system: Morningglory; conditions: formulated in anhydrous tetrahydrofuran
Excerpt: as §1, §2, §3

[18] = test system: Johnsongrass; conditions: Table II, formulated in anhydrous tetrahydrofuran
Excerpt: as §1, §2, §3

CCCCOC(=O)CNCP(=O)(O)O[Si](C)(C)C(C)(C)C [Ex. 3, Glycine, N-((([(1,1-Dimethylethyl)Dimethylsilyl]oxy)Hydroxyphosphinyl)Methyl)-, Butyl Ester]
3 (75-99% inhibition): Plant Response Index (M) ([1]; 4 WAT, 5.6 kg/h) | Plant Response Index (S) ([2]; 2 WAT, 5.6 kg/h) | Plant Response Index (S) ([2]; 4 WAT, 5.6 kg/h) | Plant Response Index (C) ([4]; Table III, 2 WAT, 5.6 kg/h) | Plant Response Index (B) ([6]; Table III, 4 WAT, 5.6 kg/h) | Plant Response Index (Q) ([7]; 2 WAT, 5.6 kg/h) | Plant Response Index (T) ([10]; 2 WAT, 1.1 kg/h) | Plant Response Index (T) ([10]; 2 WAT, .28 kg/h) | Plant Response Index (H) ([11]; 2 WAT, 11.2 kg/h) | Plant Response Index (H) ([11]; 4 WAT, 11.2 kg/h) | Plant Response Index (K) ([12]; Table II, 4 WAT, 11.2 kg/h) | Plant Response Index (K) ([12]; Table III, 4 WAT, 5.6 kg/h) | Plant Response Index (F) ([14]; Table II, 4 WAT, 11.2 kg/h) | Plant Response Index (F) ([14]; Table III, 2 WAT, 5.6 kg/h) | Plant Response Index (F) ([14]; Table III, 4 WAT, 5.6 kg/h) | Plant Response Index (E) ([16]; Table II, 2 WAT, 5.6 kg/h) | Plant Response Index (E) ([16]; Table II, 2 WAT, 11.2 kg/h) | Plant Response Index (E) ([16]; Table III, 2 WAT, 1.1 kg/h) | Plant Response Index (E) ([16]; Table III, 2 WAT, .28 kg/h) | Plant Response Index (E) ([16]; Table III, 4 WAT, 1.1 kg/h)
4 (100% inhibition): Plant Response Index (C) ([4]; Table III, 4 WAT, 5.6 kg/h) | Plant Response Index (Q) ([7]; 4 WAT, 5.6 kg/h) | Plant Response Index (R) ([8]; 2 WAT, 5.6 kg/h) | Plant Response Index (R) ([8]; 4 WAT, 5.6 kg/h) | Plant Response Index (T) ([10]; 2 WAT, 5.6 kg/h) | Plant Response Index (T) ([10]; 4 WAT, 1.1 kg/h) | Plant Response Index (T) ([10]; 4 WAT, 5.6 kg/h) | Plant Response Index (T) ([10]; 4 WAT, .28 kg/h) | Plant Response Index (E) ([16]; Table II, 4 WAT, 5.6 kg/h) | Plant Response Index (E) ([16]; Table II, 4 WAT, 11.2 kg/h) | Plant Response Index (E) ([16]; Table III, 2 WAT, 5.6 kg/h) | Plant Response Index (E) ([16]; Table III, 4 WAT, 5.6 kg/h) | Plant Response Index (E) ([16]; Table III, 4 WAT, .28 kg/h)
1 (25-49% inhibition): Plant Response Index (M) ([1]; 2 WAT, 1.1 kg/h) | Plant Response Index (M) ([1]; 4 WAT, 1.1 kg/h) | Plant Response Index (S) ([2]; 2 WAT, 1.1 kg/h) | Plant Response Index (S) ([2]; 2 WAT, .28 kg/h) | Plant Response Index (S) ([2]; 4 WAT, .28 kg/h) | Plant Response Index (O) ([3]; 2 WAT, 5.6 kg/h) | Plant Response Index (O) ([3]; 2 WAT, .28 kg/h) | Plant Response Index (O) ([3]; 4 WAT, 1.1 kg/h) | Plant Response Index (C) ([4]; Table II, 2 WAT, 11.2 kg/h) | Plant Response Index (C) ([4]; Table II, 4 WAT, 5.6 kg/h) | Plant Response Index (C) ([4]; Table III, 2 WAT, .28 kg/h) | Plant Response Index (G) ([5]; 2 WAT, 5.6 kg/h) | Plant Response Index (G) ([5]; 2 WAT, 11.2 kg/h) | Plant Response Index (B) ([6]; Table II, 2 WAT, 5.6 kg/h) | Plant Response Index (B) ([6]; Table II, 2 WAT, 11.2 kg/h) | Plant Response Index (B) ([6]; Table II, 4 WAT, 5.6 kg/h) | Plant Response Index (B) ([6]; Table III, 4 WAT, 1.1 kg/h) | Plant Response Index (B) ([6]; Table III, 4 WAT, .28 kg/h) | Plant Response Index (Q) ([7]; 2 WAT, .28 kg/h) | Plant Response Index (R) ([8]; 2 WAT, 1.1 kg/h) | Plant Response Index (R) ([8]; 2 WAT, .28 kg/h) | Plant Response Index (R) ([8]; 4 WAT, 1.1 kg/h) | Plant Response Index (J) ([9]; Table II, 4 WAT, 5.6 kg/h) | Plant Response Index (J) ([9]; Table II, 4 WAT, 11.2 kg/h) | Plant Response Index (J) ([9]; Table III, 2 WAT, 1.1 kg/h) | Plant Response Index (J) ([9]; Table III, 2 WAT, 5.6 kg/h) | Plant Response Index (J) ([9]; Table III, 2 WAT, .28 kg/h) | Plant Response Index (J) ([9]; Table III, 4 WAT, 1.1 kg/h) | Plant Response Index (J) ([9]; Table III, 4 WAT, 5.6 kg/h) | Plant Response Index (H) ([11]; 4 WAT, 5.6 kg/h) | Plant Response Index (K) ([12]; Table III, 2 WAT, .28 kg/h) | Plant Response Index (K) ([12]; Table III, 4 WAT, .28 kg/h) | Plant Response Index (L) ([13]; 2 WAT, .28 kg/h) | Plant Response Index (L) ([13]; 4 WAT, 1.1 kg/h) | Plant Response Index (F) ([14]; Table II, 2 WAT, 5.6 kg/h) | Plant Response Index (F) ([14]; Table II, 4 WAT, 5.6 kg/h) | Plant Response Index (A) ([15]; 2 WAT, 5.6 kg/h) | Plant Response Index (A) ([15]; 2 WAT, 11.2 kg/h) | Plant Response Index (A) ([15]; 4 WAT, 5.6 kg/h) | Plant Response Index (D) ([17]; Table II, 2 WAT, 5.6 kg/h) | Plant Response Index (D) ([17]; Table II, 2 WAT, 11.2 kg/h) | Plant Response Index (D) ([17]; Table II, 4 WAT, 5.6 kg/h) | Plant Response Index (D) ([17]; Table III, 2 WAT, .28 kg/h) | Plant Response Index (D) ([17]; Table III, 4 WAT, .28 kg/h) | Plant Response Index (I) ([18]; 2 WAT, 11.2 kg/h) | Plant Response Index (I) ([18]; 4 WAT, 5.6 kg/h)
2 (50-74% inhibition): Plant Response Index (M) ([1]; 2 WAT, 5.6 kg/h) | Plant Response Index (S) ([2]; 4 WAT, 1.1 kg/h) | Plant Response Index (O) ([3]; 4 WAT, 5.6 kg/h) | Plant Response Index (C) ([4]; Table II, 4 WAT, 11.2 kg/h) | Plant Response Index (C) ([4]; Table III, 2 WAT, 1.1 kg/h) | Plant Response Index (C) ([4]; Table III, 4 WAT, 1.1 kg/h) | Plant Response Index (C) ([4]; Table III, 4 WAT, .28 kg/h) | Plant Response Index (G) ([5]; 4 WAT, 5.6 kg/h) | Plant Response Index (G) ([5]; 4 WAT, 11.2 kg/h) | Plant Response Index (B) ([6]; Table II, 4 WAT, 11.2 kg/h) | Plant Response Index (B) ([6]; Table III, 2 WAT, 1.1 kg/h) | Plant Response Index (B) ([6]; Table III, 2 WAT, 5.6 kg/h) | Plant Response Index (B) ([6]; Table III, 2 WAT, .28 kg/h) | Plant Response Index (Q) ([7]; 2 WAT, 1.1 kg/h) | Plant Response Index (Q) ([7]; 4 WAT, 1.1 kg/h) | Plant Response Index (K) ([12]; Table II, 2 WAT, 5.6 kg/h) | Plant Response Index (K) ([12]; Table II, 2 WAT, 11.2 kg/h) | Plant Response Index (K) ([12]; Table II, 4 WAT, 5.6 kg/h) | Plant Response Index (K) ([12]; Table III, 2 WAT, 1.1 kg/h) | Plant Response Index (K) ([12]; Table III, 2 WAT, 5.6 kg/h) | Plant Response Index (K) ([12]; Table III, 4 WAT, 1.1 kg/h) | Plant Response Index (L) ([13]; 2 WAT, 1.1 kg/h) | Plant Response Index (L) ([13]; 2 WAT, 5.6 kg/h) | Plant Response Index (L) ([13]; 4 WAT, 5.6 kg/h) | Plant Response Index (F) ([14]; Table II, 2 WAT, 11.2 kg/h) | Plant Response Index (F) ([14]; Table III, 2 WAT, 1.1 kg/h) | Plant Response Index (F) ([14]; Table III, 2 WAT, .28 kg/h) | Plant Response Index (F) ([14]; Table III, 4 WAT, 1.1 kg/h) | Plant Response Index (F) ([14]; Table III, 4 WAT, .28 kg/h) | Plant Response Index (A) ([15]; 4 WAT, 11.2 kg/h) | Plant Response Index (D) ([17]; Table II, 4 WAT, 11.2 kg/h) | Plant Response Index (D) ([17]; Table III, 2 WAT, 1.1 kg/h) | Plant Response Index (D) ([17]; Table III, 2 WAT, 5.6 kg/h) | Plant Response Index (D) ([17]; Table III, 4 WAT, 1.1 kg/h) | Plant Response Index (D) ([17]; Table III, 4 WAT, 5.6 kg/h) | Plant Response Index (I) ([18]; 4 WAT, 11.2 kg/h)
0 (0-24% inhibition): Plant Response Index (M) ([1]; 2 WAT, .28 kg/h) | Plant Response Index (M) ([1]; 4 WAT, .28 kg/h) | Plant Response Index (O) ([3]; 2 WAT, 1.1 kg/h) | Plant Response Index (O) ([3]; 4 WAT, .28 kg/h) | Plant Response Index (C) ([4]; Table II, 2 WAT, 5.6 kg/h) | Plant Response Index (Q) ([7]; 4 WAT, .28 kg/h) | Plant Response Index (R) ([8]; 4 WAT, .28 kg/h) | Plant Response Index (J) ([9]; Table II, 2 WAT, 5.6 kg/h) | Plant Response Index (J) ([9]; Table II, 2 WAT, 11.2 kg/h) | Plant Response Index (J) ([9]; Table III, 4 WAT, .28 kg/h) | Plant Response Index (H) ([11]; 2 WAT, 5.6 kg/h) | Plant Response Index (L) ([13]; 4 WAT, .28 kg/h) | Plant Response Index (I) ([18]; 2 WAT, 5.6 kg/h)
